This passage reports Kd results from US7125869B2, “Polycyclic compounds which modulate PPARγ type receptors and cosmetic/pharmaceutical compositions comprised thereof” (Galderma Research & Development, priority 2002, dated 2006).

pKd: −log10 of the molar value.

For the assay, the target named is T1, PPARγ (Homo sapiens, UniProt P37231).
T1 construct: Either way it is a handle, not a second protein
T1 sequence (P37231 238-505 limits assumed): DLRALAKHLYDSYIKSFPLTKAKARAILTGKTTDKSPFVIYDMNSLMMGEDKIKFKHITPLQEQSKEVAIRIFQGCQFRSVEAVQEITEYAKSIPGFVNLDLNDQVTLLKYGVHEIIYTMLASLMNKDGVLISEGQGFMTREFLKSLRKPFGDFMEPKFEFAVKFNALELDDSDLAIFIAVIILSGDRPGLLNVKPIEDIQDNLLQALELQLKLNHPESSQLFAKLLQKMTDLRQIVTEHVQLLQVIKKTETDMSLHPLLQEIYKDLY
Put plainly: Crossover-curve PPAR transactivation test (HeLN cells, luciferase reporter), PPARγ. It counts as cell-based. The note with it: HeLN cells stably transfected with Gal-hPPARγ; Schild regression against reference agonist; n.a. means not active; read-out: PPARγ Kd app. As to the method:
The activation of receptors with an agonist (activator) in HeLN cells leads to the expression of a reporter gene, luciferase, which, in the presence of a substrate, generates light. The modulation of the receptors is measured by quantifying the luminescence produced after incubating the cells in the presence of a reference agonist. The ligands displace the agonist from its site. The measurement of the activity is performed by quantifying the light produced. This measurement makes it possible to determine the modulatory activity of the compounds according to the invention by determining the constant that is the affinity of the molecule for the receptor. Since this value can fluctuate depending on the basal activity and the expression of the receptor, it is referred to as Kd apparent (KdApp in nM).
To determine this constant, “crossover curves” of the test product against a reference agonist are performed in a 96-well plate: 10 concentrations of the test product plus a concentration 0 are arranged in a line, and 7 concentrations of the agonist plus a concentration 0 are arranged in a column. This is 88 measurement points for 1 product and 1 receptor. The remaining 8 wells are used for repeatability controls.
Measurements are also taken for total agonist controls with the same products.
The HeLN cell lines used are stable transfectants containing the plasmids ERE-βGlob-Luc-SV-Neo (reporter gene) and PPAR (α, δ, γ) Gal-hPPAR. These cells are inoculated into 96-well plates at a rate of 10 000 cells per well in 100 μl of DMEM medium without phenol red and supplemented with 10% of defatted calf serum. The plates are then incubated at 37° C. and 7% CO2 for 16 hours.
The various dilutions of the test products and of the reference ligand are added at a rate of 5 μl per well. The plates are then incubated for 18 hours at 37° C. and 7% CO2. The culture medium is removed by turning over and 100 μl of a 1:1 PBS/luciferine mixture are added to each well. After 5 minutes, the plates are read by the luminescence detector.
In the case of `CCCCCCCC(=O)N(C)Cc1cccc(-c2ccc(N(C)c3ccccc3C(=O)O)cc2)c1` [Example 8, 2-(methyl-{3′-[(methyloctanoylamino)methyl]biphenyl-4-yl}amino)benzoic acid], the negative-log Kd (pKd) is 6.60. Under `COCCOCOc1ccc2cc(C(=O)N(C)Cc3cccc(-c4ccc(Nc5cccc(C(=O)N6CCC(C)CC6)c5)cc4)c3)ccc2c1` [Example 16, N-methyl-N-{4′-[3-(4-methylpiperidine-1-carbonyl)phenylamino]biphenyl-3-ylmethyl}-6-(2-methoxyethoxymethoxy)naphthalene-2-carboxylamide] stands 6.92. Under `COCCOCOc1ccc2cc(C(=O)N(C)Cc3cccc(-c4ccc(Nc5cccc(C(=O)N6CCOCC6)c5)cc4)c3)ccc2c1` [Example 17] stands 6.30.
